# Results from doi:10.1101/2022.02.23.481635v1 (biorxiv, 2022).
# Assays:
# Assay type in all cases: binding
# 14-3-3σ/TAZ complex [1] = target: T1, 14-3-3σ/TAZ complex (Homo sapiens, UniProt P31947+Q9GZV5); assay: STD NMR; details: 300 μM fragment, 10 μM 14-3-3σ, 100 μM TAZ peptide, relative to apo-14-3-3σ
# 14-3-3σ/TAZ complex [2] = target: T1, 14-3-3σ/TAZ complex; assay: STD NMR dose response
# 14-3-3/ABL1 complex = 14-3-3/ABL1 complex (Homo sapiens, UniProt P00519+P31947); assay: STD NMR dose response
# 14-3-3/ABL1 complex, sequence (P31947 whole entry, other chains not shown): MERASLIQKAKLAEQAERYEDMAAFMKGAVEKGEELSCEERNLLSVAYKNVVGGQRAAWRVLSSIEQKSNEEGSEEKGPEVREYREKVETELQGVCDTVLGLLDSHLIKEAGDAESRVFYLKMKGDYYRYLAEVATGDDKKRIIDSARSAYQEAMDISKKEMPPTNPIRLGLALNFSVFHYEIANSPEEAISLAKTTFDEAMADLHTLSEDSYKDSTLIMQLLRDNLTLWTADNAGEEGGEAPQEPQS
# T1 sequence (P31947 whole entry, other chains not shown, the tested form may be a part): as the sequence (P31947 whole entry, other chains not shown) above
fold STD signal (I+peptide / I-peptide) (14-3-3σ/TAZ complex [1]) [fold],EC50 (14-3-3σ/TAZ complex [2]) [µM],EC50 (14-3-3/ABL1 complex) [µM],Compound
1.9,,,CCN1CCN(c2cc(C(=N)N)ccn2)CC1 [F4]
,1800 ± 400,8700 ± 400,COC(=O)c1cccc(C(=N)N)c1 [F5]
,2300 ± 300,,N=C(N)c1cc2ccccc2o1 [F9]
